In the test the target is NLRP3 inflammasome (Homo sapiens (Human), UniProt Q96P20). Kind of test: Evaluation of NLRP3 inflammasome inhibitory activity (inhibition of IL-1β production in LPS/Nigericin-stimulated THP1-Null cells). The format is cell-based. Conditions: IL-1β production in THP1-Null cells; for inhibition at 0.0024 µM: test compound 0.0024 μM; for IC50: PMA, LPS 1 μg/mL, Nigericin 7.5 μmol/L, AlphaLISA; for inhibition at 2.4 µM: test compound 2.4 μM. As to the method:
The NLRP3 inflammasome inhibitory activity of test compounds were evaluated on the basis of the inhibitory activity of the IL-1β production in THP1-Null cells (Product Number: thp-null, InvivoGen). […] The supernatant of the culture was removed, and thereto was added media for assay (25 μL/well) containing 1 μg/mL Lipopolysaccharides (Product Number: L2654, Sigma-Aldrich (registered trademark)). […] The supernatant of the culture was removed. […] A solution containing a test compound (20 μL/well) was added to test compound-setting wells. […] The supernatant of the culture was cryonically stored (set at −20° C.) until measurement of IL-1β.
The amount of IL-1β in the culture supernatant was quantitated with AlphaLISA(registered trademark) Human IL-1β Detection Kit (Product Number: AL220C, Perkin Elmer). Fluorescence intensity was measured with a microplate reader EnSpier (Model number: 2300-00J, Perkin Elmer) or EnSight(Model number: HH34000000, Perkin Elmer) according to procedure manuals attached thereto. Inhibition rates of the test compound-setting wells were calculated on the basis of 100% for the blank-setting wells and 0% for the control-setting wells.
For orientation: In Alpha technology, singlet oxygen from a donor bead excites a nearby acceptor bead.

NLRP3 inflammasome, sequence (Q96P20 whole entry): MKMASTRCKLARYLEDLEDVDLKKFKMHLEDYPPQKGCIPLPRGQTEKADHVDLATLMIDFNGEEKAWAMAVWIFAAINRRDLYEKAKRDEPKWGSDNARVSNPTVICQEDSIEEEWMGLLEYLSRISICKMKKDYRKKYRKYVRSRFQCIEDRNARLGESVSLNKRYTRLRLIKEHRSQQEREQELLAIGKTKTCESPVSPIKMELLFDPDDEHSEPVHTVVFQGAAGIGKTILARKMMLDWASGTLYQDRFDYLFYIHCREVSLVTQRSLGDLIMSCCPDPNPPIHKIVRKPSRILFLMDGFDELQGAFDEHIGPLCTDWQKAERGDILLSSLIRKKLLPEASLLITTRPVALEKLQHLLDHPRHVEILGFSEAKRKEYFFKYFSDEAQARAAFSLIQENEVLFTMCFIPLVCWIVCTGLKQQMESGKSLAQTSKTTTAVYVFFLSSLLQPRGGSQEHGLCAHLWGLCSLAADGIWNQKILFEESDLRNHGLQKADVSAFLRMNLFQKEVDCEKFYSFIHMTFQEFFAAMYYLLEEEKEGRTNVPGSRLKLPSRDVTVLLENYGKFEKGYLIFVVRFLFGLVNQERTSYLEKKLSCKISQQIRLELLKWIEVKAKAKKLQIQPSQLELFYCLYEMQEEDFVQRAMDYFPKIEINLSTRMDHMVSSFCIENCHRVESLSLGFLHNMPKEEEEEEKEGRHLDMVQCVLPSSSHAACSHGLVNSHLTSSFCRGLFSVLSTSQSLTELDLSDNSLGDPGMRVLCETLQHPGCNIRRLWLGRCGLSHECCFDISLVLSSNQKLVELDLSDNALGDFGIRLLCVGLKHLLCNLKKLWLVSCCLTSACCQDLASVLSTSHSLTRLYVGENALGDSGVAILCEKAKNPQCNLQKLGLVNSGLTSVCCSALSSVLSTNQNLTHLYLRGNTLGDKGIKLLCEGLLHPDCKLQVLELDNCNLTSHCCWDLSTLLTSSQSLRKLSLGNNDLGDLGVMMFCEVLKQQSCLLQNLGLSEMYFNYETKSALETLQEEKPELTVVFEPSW

For `CCNc1nc2nn(-c3c(C)cc(Br)cc3C)cc2c(=O)[nH]1` [Example 227], 0.0024 µM produced 52% inhibition. `Cc1cc(C2CC2)cc(C)c1-n1cc2c(=O)[nH]c(N3CCC3)nc2n1` [Example 328]: the IC50 worked out at 5.8 nM. For the molecule `Cc1ccccc1-n1cc2c(=O)[nH]c(N3CCC(c4ccccc4)C3)nc2n1` (racemic) [Example 27], the IC50 worked out at 1200 nM. Take `Cc1cccc(C)c1-n1cc2c(=O)[nH]c(N3CCCC3)nc2n1` [Example 11]: inhibition was half-maximal at 200 nM (IC50). Take `CN(C)c1nc2nn(-c3ccccc3Cl)cc2c(=O)[nH]1` [Example 4]: inhibition was half-maximal at 1700 nM (IC50). Turning to `Cc1cc(Br)cc(C)c1-n1cc2c(=O)[nH]c(N3C=COCC3)nc2n1` [Example 362], the IC50 came out at 2.6 nM. The same measure, in the same setting: for `Cc1cc(Cl)cc(C(O)C2CC2)c1-n1cc2c(=O)[nH]c(N3CCOCC3)nc2n1` (racemic) [Example 162] the value was 150 nM. On the same count and under the same terms, the same measure for `Cc1cc(C2CC2)cc(C)c1-n1cc2c(=O)[nH]c(N3C[C@H]4C[C@@H]3CO4)nc2n1` [Example 209, 6-((1R,4R)-2-oxa-5-azabicyclo[2.2.1]heptan-5-yl)-2-(4-cyclopropyl-2,6-dimethylphenyl)-2,5-dihydro-4H-pyrazolo[3,4-d]pyrimidin-4-one]: 5.1 nM. For `COc1ccc(CNc2cc(C(F)(F)F)cc(Cl)c2-n2cc3c(=O)[nH]c(N4CCOCC4)nc3n2)c(OC)c1` [Example 269], 2.4 µM produced 25% inhibition.

With `Cc1cc(Br)cc(C)c1-n1cc2c(=O)n(C)c(N3CC4CC(C3)O4)nc2n1` [Example 310], the IC50 amounted to 450 nM. As to `Cc1ccc(-n2nc3nc(N4CCCC4)[nH]c(=O)c3c2C)c(C)c1` [Example 55], the half-inhibitory concentration (IC50) worked out at 230 nM. Molecule `Cc1ccccc1-n1cc2c(=O)[nH]c(N3CCCCCC3)nc2n1` [Example 22] registered an IC50 of 8200 nM. `Cc1cccc(-n2cc3c(=O)[nH]c(N4CCCC4)nc3n2)c1C` [Example 47] came in with an IC50 of 230 nM. `Cc1ccccc1-n1cc2c(=O)[nH]c(N3CCC3(C)C)nc2n1` [Example 39] displayed an IC50 of 7100 nM. This IC50 lies about 31-fold higher than the previous one.

`Cc1cccc(C)c1-n1cc2c(=O)[nH]c(N3CCOCC3)nc2n1` [Example 233] displayed an IC50 of 760 nM. The same measure, in the same setting: the same measure for `Cc1ccc(-n2cc3c(=O)[nH]c(N4CCCC4)nc3n2)c(C)c1` [Example 45]: 70 nM. Consider `Cc1cc(C(F)(F)F)cc(C)c1-n1cc2c(=O)[nH]c(N3C[C@H]4C[C@@H]3CO4)nc2n1` [Example 249], for which half-maximal inhibition (IC50) was put at 3.3 nM. This IC50 is about 21-fold lower than that of the molecule before.

As to `Cc1cc(Br)ccc1-n1cc2c(=O)[nH]c(N3CCCOCC3)nc2n1` [Example 142], the IC50 is 22 nM. This IC50 lies about 6.7-fold higher than the previous one.

As for `COC1CCN(c2nc3nn(-c4ccc(Br)cc4C)cc3c(=O)[nH]2)C1` (racemic) [Example 70], the midpoint of inhibition, the IC50, lay at 39 nM.

Regarding `O=c1[nH]c(N2CCOCC2)nc2nn(-c3c(Cl)cc(C(F)(F)F)cc3N3CCOCC3)cc12` [Example 256], the inhibition at 2.4 µM is 40%. On to `Cc1cc(C(F)(F)F)cc(C)c1-n1cc2c(=O)[nH]c(N3CCOCC3)nc2n1` [Example 237], for which the midpoint of inhibition, the IC50, lay at 23 nM. In turn, `Cc1cc(Br)cc(C)c1-n1cc2c(=O)[nH]c(N3CCC(F)(F)C3)nc2n1` [Example 283] gave an IC50 of 7.1 nM. `Cc1cc(Br)cc(C)c1-n1cc2c(=O)[nH]c(N3CCc4cccnc43)nc2n1` [Example 340] had an IC50 of 470 nM. As for `Cc1ccc(C)c(-n2cc3c(=O)[nH]c(N4CCCC4)nc3n2)c1` [Example 46], inhibition was half-maximal at 290 nM (IC50). Molecule `Cc1cc(Br)cc(C)c1-n1cc2c(=O)[nH]c(N3CC4COC(C4)C3)nc2n1` (racemic) [Example 279] came in with an IC50 of 15 nM. In the case of `Cc1cc(C2CC2)cc(F)c1-n1cc2c(=O)[nH]c(N3C[C@H]4C[C@@H]3CO4)nc2n1` [Example 299], the IC50 was 17 nM. On to `Cc1cc(Br)cc(C)c1-n1cc2c(=O)[nH]c(N3CCC[C@@H]3C)nc2n1` [Example 285], for which the IC50 is 27 nM. On to `CO[C@H]1CCN(c2nc3nn(-c4c(C)cc(Br)cc4C)cc3c(=O)[nH]2)C1` [Example 318], for which the IC50 amounted to 32 nM. In turn, `Cc1cc(Br)cc(C)c1-n1cc2c(OC(F)F)nc(N3CCOCC3)nc2n1` [Example 332] returned an inhibition at 2.4 µM of 33%.

`Cc1nc(C(F)(F)F)ccc1-n1cc2c(=O)[nH]c(N3CCOCC3)nc2n1` [Example 121] came in with an IC50 of 540 nM.

The molecule `COc1ccc(-n2cc3c(=O)[nH]c(N4CCCC4)nc3n2)c(Br)c1` [Example 307] returned an IC50 of 11 nM. `O=c1[nH]c(N2CCOCC2)nc2nn(-c3c(F)cc(Br)cc3C(F)(F)F)cc12` [Example 272] had an IC50 of 22 nM. In the case of `Cc1cc(C2CC2)ccc1-n1cc2c(=O)[nH]c(N3CCOCC3)nc2n1` [Example 242], the IC50 was 24 nM. Take `Cc1cc(C)c(-n2cc3c(=O)[nH]c(N4CC5COCC5C4)nc3n2)c(C)c1` (stereo not shown) [Example 117]: half-maximal inhibition (IC50) required 46 nM. With `Cc1cc(C2CC2)cc(C)c1-n1cc2c(=O)[nH]c(N3CCN(S(C)(=O)=O)CC3)nc2n1` [Example 125], the inhibition at 0.0024 µM amounted to 52%. On to `O=c1[nH]c(N2CCCC2)nc2nn(-c3ccccc3)cc12` [Example 2], for which the concentration for half-maximal inhibition (IC50) is 8900 nM.

For the molecule `Cc1cc(Br)cnc1-n1cc2c(=O)[nH]c(N3CCCC3)nc2n1` [Example 77], half-maximal inhibition (IC50) was put at 49 nM. This IC50 is about 180-fold lower than that of the molecule before. Same read-out and setting: for `O=c1[nH]c(N2CCOCC2)nc2nn(-c3ccc(Cl)cc3CC3CC3)cc12` [Example 320] the value was 45 nM; for `CCOc1cc(Br)ccc1-n1cc2c(=O)[nH]c(N3CCOCC3)nc2n1` [Example 302], 130 nM.

`COC1CCN(c2nc3nn(-c4c(C)cc(C)cc4C)cc3c(=O)[nH]2)CC1` [Example 106] registered an IC50 of 96 nM.

Take `CCc1cc(C)c(-n2cc3c(=O)[nH]c(N4CCOCC4)nc3n2)c(C)c1` [Example 292]: inhibition was half-maximal at 28 nM (IC50).

In turn, `Cc1cc(C(F)(F)F)ncc1-n1cc2c(=O)[nH]c(N3CC(F)(F)C3)nc2n1` [Example 99] came in with an IC50 of 82 nM. Same read-out and setting: the same measure for `Cc1cc(C(C)C)ccc1-n1cc2c(=O)[nH]c(N3CCCC3)nc2n1` [Example 83]: 8.4 nM; for `Cc1cc(C2CC2)cc(C)c1-n1cc2c(=O)[nH]c(N3CCCCO3)nc2n1` [Example 333]: 49 nM; for `CCC(C)n1nc(C)c(-n2cc3c(=O)[nH]c(N4CCCC4)nc3n2)c1C` (racemic) [Example 347]: 920 nM. The molecule `CC(=O)c1cc(Br)ccc1-n1cc2c(=O)[nH]c(N3CCOCC3)nc2n1` [Example 131] showed an IC50 of 63 nM. In turn, `Cc1ccc(C(F)(F)F)cc1-n1cc2c(=O)[nH]c(N3CCCC3)nc2n1` [Example 6] showed an IC50 of 4000 nM. This IC50 is about 63-fold higher than that of the molecule before.

In the case of `O=c1[nH]c(N2CCOCC2)nc2nn(-c3ccc(Br)cc3CO)cc12` [Example 104], the IC50 was 140 nM. Take `O=c1[nH]c(N2CCCC2)nc2nn(-c3ccc(Cl)cc3Cl)cc12` [Example 127]: the 50% inhibitory concentration (IC50) came out at 13 nM. The molecule `C[C@@H]1COCCN1c1nc2nn(-c3ccc(Br)cc3C(F)(F)F)cc2c(=O)[nH]1` [Example 258] displayed an IC50 of 23 nM. Turning to `Cc1nn(C(C)C)c(C)c1-n1cc2c(=O)[nH]c(N3CCCC3)nc2n1` [Example 343, 2-(1-isopropyl-3,5-dimethyl-1H-pyrazol-4-yl)-6-(pyrrolidin-1-yl)-2,5-dihydro-4H-pyrazolo[3,4-d]pyrimidin-4-one], the half-inhibitory concentration (IC50) turned out to be 750 nM. Molecule `Cc1cc(C2CC2)cc(Cl)c1-n1cc2c(=O)[nH]c(N3C[C@@H]4C[C@H]3CO4)nc2n1` [Example 288] returned an IC50 of 10 nM.

What is called inhibition is the change of the read-out against control, counted positive when it falls. A low value points to a weak effect. What is called IC50 is the point on the concentration scale where inhibition reaches its midpoint. Read a high IC50 as weaker potency in that assay.
